From article PMC6934184, “Selective DNA-PKcs inhibition extends the therapeutic index of localized radiotherapy and chemotherapy” (The Journal of Clinical Investigation, 2019)

Experiment: plasma pharmacokinetics across mouse strains and doses
Format: in vivo
Method: by determining the absorbance at 570 nm of SRB stain dissolved in Tris base (10 mM, pH 10.5) using a spectrophotometer (BMG Labtech).
In vivo pharmacokinetic analyses
All animal experiments were performed in accordance with the Animals (Scientific Procedures) 1986 Act. 8-9 week old mice were purchased from Charles River Laboratories and housed under specific pathogen-free conditions under 12 hour light/dark cycles.
Female CD-1, CD-1 nude, BALB/c nude and C57BL/6 mice were treated with NU5455 (30 or 100 mg/kg prepared in 1% (v/v) acetic acid or NMP:Encapsin (30% aq):PEG4000 (1:6:3 v/v/v) dosed by oral gavage. Blood samples were collected into heparinized tubes at 15, 30, 60, 180 and 360 minutes post-gavage.
Blood samples were centrifuged at 6700 x g for 3 minutes, the plasma removed and stored at -20°C prior to analysis for drug by HPLC with fluorescence detection. Aliquots of plasma (50 µl) were vigorously vortexed with acetonitrile (450 µl) and the precipitate removed by centrifugation at 6700 x g for 5 minutes. […]
Samples (20 µl) were applied to a 10 x 0.46 cm Genesis C18 4 µm column (Grace Vydac) fitted with an in-line filter. […] Analytes were detected by fluorescence at 390 nm following excitation at 242 nm. Plasma concentrations were determined using linear standard curves (0.01 µM – 10 µM, R2 > 0.98) generated by extracting compounds from […]

CN(C(=O)CN1CCOCC1)c1ccc2sc3c(-c4cccc5c(=O)cc(N6CC7CCC(C6)O7)oc45)cccc3c2c1 [NU5455]
plasma pharmacokinetic profile, CD-1 nude versus C57BL/6 mice (30 mg/kg oral): comparable
duration of plasma concentrations (100 mg/kg oral, versus 30 mg/kg): longer duration
